Data reported in publication PMC5218480 (PLoS ONE, 2017).

Test system: MV-4-11 cells
Assay: Gene expression microarray analysis (Affymetrix PrimeView) and GSEA
Type: cell-based, human
Design: RFU PODN (11730768_x_at) / Fold change /veh PODN (11730768_x_at) / RFU LINC00158 (11744669_a_at) / Fold change /veh LINC00158 (11744669_a_at) / RFU DUSP10 (11751237_a_at) / Fold change /veh DUSP10 (11751237_a_at) / RFU ID3 (11757404_x_at) / Fold change /veh ID3 (11757404_x_at) / RFU PLEKHG5 (11737974_s_at) / Fold change /veh PLEKHG5 (11737974_s_at) / RFU LRRC4B (11730491_at) / Fold change /veh LRRC4B (11730491_at) / RFU GIMAP4 (11747438_a_at) / Fold change /veh GIMAP4 (11747438_a_at) / RFU KRT8 (11758183_x_at) / Fold change /veh KRT8 (11758183_x_at) / RFU CNN1 (11734310_a_at) / Fold change /veh CNN1 (11734310_a_at) / RFU VPS37D (11726825_at) / Fold change /veh VPS37D (11726825_at) / RFU C10orf10 (11716522_x_at) / Fold change /veh C10orf10 (11716522_x_at) / RFU KIR2DL2 /// KIR2DL4 /// KIR2DL5A /// KIR2DL5B /// KIR2DS1 /// KIR2DS2 /// KIR2DS3 /// KIR2DS4 /// KIR3DL3 /// KIR3DL3 /// KIR3DS1 (11738374_at) / Fold change /veh KIR2DL2 /// KIR2DL4 /// KIR2DL5A /// KIR2DL5B /// KIR2DS1 /// KIR2DS2 /// KIR2DS3 /// KIR2DS4 /// KIR3DL3 /// KIR3DL3 /// KIR3DS1 (11738374_at) / RFU C1QL1 (11718748_at) / Fold change /veh C1QL1 (11718748_at) / RFU TMPRSS4 (11747572_a_at) / Fold change /veh TMPRSS4 (11747572_a_at) / RFU HAMP (11756126_x_at) / Fold change /veh HAMP (11756126_x_at) / RFU RNFT2 (11725882_a_at) / Fold change /veh RNFT2 (11725882_a_at) / RFU NR4A2 (11747474_a_at) / Fold change /veh NR4A2 (11747474_a_at) / RFU ABCC12 (11746883_a_at) / Fold change /veh ABCC12 (11746883_a_at) / RFU TMEM136 (11760407_x_at) / Fold change /veh TMEM136 (11760407_x_at) / RFU CLDN22 /// WWC2 (11732394_at) / Fold change /veh CLDN22 /// WWC2 (11732394_at) / RFU HLA-DPB1 (11760878_x_at) / Fold change /veh HLA-DPB1 (11760878_x_at) / RFU SPINT1 (11716480_a_at) / Fold change /veh SPINT1 (11716480_a_at) / RFU GAP43 (11754022_s_at) / Fold change /veh GAP43 (11754022_s_at) / RFU A4GNT (11735810_at) / Fold change /veh A4GNT (11735810_at) / RFU PRB3 (11715151_x_at) / Fold change /veh PRB3 (11715151_x_at) / RFU TUBB4B (11761932_at) / Fold change /veh TUBB4B (11761932_at) / RFU CAPN14 (11732068_a_at) / Fold change /veh CAPN14 (11732068_a_at) / RFU TMCC2 (11721928_a_at) / Fold change /veh TMCC2 (11721928_a_at) / RFU IRGQ (11745062_a_at) / Fold change /veh IRGQ (11745062_a_at) / RFU FAM174B (11720279_a_at) / Fold change /veh FAM174B (11720279_a_at) / RFU TMPRSS4 (11748680_a_at) / Fold change /veh TMPRSS4 (11748680_a_at) / RFU FAM212B (11763350_a_at) / Fold change /veh FAM212B (11763350_a_at) / RFU PLEKHG5 (11743358_a_at) / Fold change /veh PLEKHG5 (11743358_a_at) / RFU ZSCAN30 (11745921_a_at) / Fold change /veh ZSCAN30 (11745921_a_at) / RFU CMKLR1 (11741424_a_at) / Fold change /veh CMKLR1 (11741424_a_at) / RFU LOC101060620 /// MAPK8IP1 (11723275_at) / Fold change /veh LOC101060620 /// MAPK8IP1 (11723275_at) / RFU SPTSSB (11747773_x_at) / Fold change /veh SPTSSB (11747773_x_at) / RFU PRSS12 (11739890_at) / Fold change /veh PRSS12 (11739890_at) / RFU BIN1 (11741810_x_at) / Fold change /veh BIN1 (11741810_x_at) / RFU WNT11 (11732464_a_at) / Fold change /veh WNT11 (11732464_a_at) / RFU C10orf10 (11716521_a_at) / Fold change /veh C10orf10 (11716521_a_at) / RFU C5orf56 (11738089_at) / Fold change /veh C5orf56 (11738089_at) / RFU CYB561 (11721691_x_at) / Fold change /veh CYB561 (11721691_x_at) / RFU ANKRD19P (11752326_a_at) / Fold change /veh ANKRD19P (11752326_a_at) / RFU OR2T12 /// OR2T33 /// OR2T8 (11738714_s_at) / Fold change /veh OR2T12 /// OR2T33 /// OR2T8 (11738714_s_at) / RFU VCAN (11748164_a_at) / Fold change /veh VCAN (11748164_a_at) / RFU JSRP1 (11732532_at) / Fold change /veh JSRP1 (11732532_at) / RFU KRTAP10-11 (11738290_x_at) / Fold change /veh KRTAP10-11 (11738290_x_at) / RFU MYO3A (11730013_a_at) / Fold change /veh MYO3A (11730013_a_at) / RFU EBF3 (11725865_a_at) / Fold change /veh EBF3 (11725865_a_at) / RFU CAMK2N1 (11719241_x_at) / Fold change /veh CAMK2N1 (11719241_x_at) / RFU C5orf56 (11738088_a_at) / Fold change /veh C5orf56 (11738088_a_at) / RFU OLFML3 (11715873_a_at) / Fold change /veh OLFML3 (11715873_a_at) / RFU LOC100653217 /// NTM (11731650_a_at) / Fold change /veh LOC100653217 /// NTM (11731650_a_at) / RFU MAPK11 (11762145_a_at) / Fold change /veh MAPK11 (11762145_a_at) / RFU FIZ1 (11724087_x_at) / Fold change /veh FIZ1 (11724087_x_at) / RFU OASL (11726364_x_at) / Fold change /veh OASL (11726364_x_at) / RFU SOX15 (11748057_x_at) / Fold change /veh SOX15 (11748057_x_at) / RFU CD79A (11719716_a_at) / Fold change /veh CD79A (11719716_a_at) / RFU HIST1H1D (11736915_at) / Fold change /veh HIST1H1D (11736915_at) / RFU CASKIN2 (11723855_a_at) / Fold change /veh CASKIN2 (11723855_a_at) / RFU LOC730098 (11760151_x_at) / Fold change /veh LOC730098 (11760151_x_at) / RFU OR4N2 (11742367_at) / Fold change /veh OR4N2 (11742367_at) / RFU PRRT2 (11749266_a_at) / Fold change /veh PRRT2 (11749266_a_at) / RFU SNX32 (11753110_a_at) / Fold change /veh SNX32 (11753110_a_at) / RFU CDHR5 (11726645_a_at) / Fold change /veh CDHR5 (11726645_a_at) / RFU RCAN1 (11760418_a_at) / Fold change /veh RCAN1 (11760418_a_at) / RFU FAM167A (11723789_a_at) / Fold change /veh FAM167A (11723789_a_at) / RFU FAM26E (11764081_at) / Fold change /veh FAM26E (11764081_at) / RFU ISYNA1 (11749810_s_at) / Fold change /veh ISYNA1 (11749810_s_at) / RFU ACY1 (11761880_at) / Fold change /veh ACY1 (11761880_at) / RFU 11764098_at / Fold change /veh 11764098_at / RFU SAMD14 (11745864_x_at) / Fold change /veh SAMD14 (11745864_x_at) / RFU NPB (11741838_a_at) / Fold change /veh NPB (11741838_a_at) / RFU TMPRSS6 (11731388_a_at) / Fold change /veh TMPRSS6 (11731388_a_at) / RFU KRTAP10-2 (11738614_at) / Fold change /veh KRTAP10-2 (11738614_at) / RFU ARHGAP8 /// PRR5-ARHGAP8 (11727945_x_at) / Fold change /veh ARHGAP8 /// PRR5-ARHGAP8 (11727945_x_at) / RFU KRTAP5-7 /// NADSYN1 (11734609_at) / Fold change /veh KRTAP5-7 /// NADSYN1 (11734609_at) / RFU RASL12 (11751679_a_at) / Fold change /veh RASL12 (11751679_a_at) / RFU CDKN2B (11736163_a_at) / Fold change /veh CDKN2B (11736163_a_at) / RFU PRF1 (11729649_at) / Fold change /veh PRF1 (11729649_at) / RFU, ZNF638 /// ZNF638-IT1 / Fold change vs veh, ZNF638 /// ZNF638-IT1 / RFU, PANK3 / Fold change vs veh, PANK3 / RFU, SH3YL1 / Fold change vs veh, SH3YL1 / RFU, ZEB2 / Fold change vs veh, ZEB2 / RFU, NRIP1 / Fold change vs veh, NRIP1 / RFU, PTTG1IP / Fold change vs veh, PTTG1IP / RFU, CAPN2 / Fold change vs veh, CAPN2 / RFU, MED14 / Fold change vs veh, MED14 / RFU, SNORA58 / Fold change vs veh, SNORA58 / RFU, C1orf63 / Fold change vs veh, C1orf63 / RFU, LRRFIP1 / Fold change vs veh, LRRFIP1 / RFU, NDUFAF7 / Fold change vs veh, NDUFAF7 / RFU, SLC12A2 / Fold change vs veh, SLC12A2 / RFU, IBTK / Fold change vs veh, IBTK / RFU, ESF1 / Fold change vs veh, ESF1 / Fold change vs veh, TMEM50B / RFU, TAOK1 / Fold change vs veh, TAOK1 / RFU, ACBD3 / Fold change vs veh, ACBD3 / RFU, TMA16 / Fold change vs veh, TMA16 / RFU, RWDD3 / Fold change vs veh, RWDD3 / RFU, BCAT1 / Fold change vs veh, BCAT1 / RFU, EDEM3 / Fold change vs veh, EDEM3 / RFU, TMEM33 / Fold change vs veh, TMEM33 / RFU, WDR75 / Fold change vs veh, WDR75 / RFU, AHCTF1 / Fold change vs veh, AHCTF1 / RFU, TFRC / Fold change vs veh, TFRC / RFU, ZDHHC17 / Fold change vs veh, ZDHHC17 / RFU, NOM1 / Fold change vs veh, NOM1 / RFU, ARL8B / Fold change vs veh, ARL8B / RFU, ZBTB11 / Fold change vs veh, ZBTB11 / RFU, TAMM41 / Fold change vs veh, TAMM41 / RFU, KIAA1704 /// LOC100996395 / Fold change vs veh, KIAA1704 /// LOC100996395 / RFU, ING1 / Fold change vs veh, ING1 / RFU, TRMT61B / Fold change vs veh, TRMT61B / RFU, FUBP3 / Fold change vs veh, FUBP3 / RFU, TP53 / Fold change vs veh, TP53 / RFU, TNKS2 / Fold change vs veh, TNKS2 / RFU, ZFP14 / Fold change vs veh, ZFP14 / RFU, ACTR2 / Fold change vs veh, ACTR2 / RFU, PPP3R1 / Fold change vs veh, PPP3R1 / RFU, PIK3R1 / Fold change vs veh, PIK3R1 / RFU, HNRNPA1 / Fold change vs veh, HNRNPA1 / RFU, RNF170 / Fold change vs veh, RNF170 / RFU, ZNF28 / Fold change vs veh, ZNF28 / RFU, RNGTT / Fold change vs veh, RNGTT / RFU, OGT / Fold change vs veh, OGT / RFU, BRD1 / Fold change vs veh, BRD1 / RFU, MARS / Fold change vs veh, MARS / RFU, ZNF655 / Fold change vs veh, ZNF655 / RFU, FAHD1 / Fold change vs veh, FAHD1 / RFU, BDP1 / Fold change vs veh, BDP1 / RFU, LRRCC1 / Fold change vs veh, LRRCC1 / RFU, ARID1A / Fold change vs veh, ARID1A / RFU, ZNF146 / Fold change vs veh, ZNF146 / RFU, ZNF330 / Fold change vs veh, ZNF330 / RFU, GPN3 / Fold change vs veh, GPN3 / RFU, C9orf123 / Fold change vs veh, C9orf123 / RFU, N4BP2L2 / Fold change vs veh, N4BP2L2 / RFU, ARFIP1 / Fold change vs veh, ARFIP1 / RFU, FAM179B / Fold change vs veh, FAM179B / RFU, BCL10 / Fold change vs veh, BCL10 / RFU, UHRF1BP1L / Fold change vs veh, UHRF1BP1L / RFU, BET1 / Fold change vs veh, BET1 / RFU, CNOT2 / Fold change vs veh, CNOT2 / RFU, ZNF268 / Fold change vs veh, ZNF268 / Fold change vs veh, ZNF507 / RFU, DGCR2 / Fold change vs veh, DGCR2 / RFU, WDSUB1 / Fold change vs veh, WDSUB1 / Fold change vs veh, HSP90B1 /// MIR3652 / RFU, ADSS / Fold change vs veh, ADSS / RFU, GK / Fold change vs veh, GK / RFU, ZNF148 / Fold change vs veh, ZNF148 / RFU, TAF9 / Fold change vs veh, TAF9 / RFU, SLC1A5 / Fold change vs veh, SLC1A5 / RFU, SLMO2 / Fold change vs veh, SLMO2 / RFU, ABCC4 / Fold change vs veh, ABCC4 / RFU, LOC101060439 /// RAP1B / Fold change vs veh, LOC101060439 /// RAP1B / RFU, RFX7 / Fold change vs veh, RFX7 / RFU, GTPBP10 / Fold change vs veh, GTPBP10 / RFU, CNEP1R1 / Fold change vs veh, CNEP1R1 / RFU, BIVM-ERCC5 /// ERCC5 / Fold change vs veh, BIVM-ERCC5 /// ERCC5 / RFU, ILF3 / Fold change vs veh, ILF3 / RFU 11762660_at / Fold change /veh 11762660_at / RFU VCAN (11757783_s_at) / Fold change /veh VCAN (11757783_s_at) / RFU DDX43 (11728927_at) / Fold change /veh DDX43 (11728927_at) / RFU KRT8 (11758188_x_at) / Fold change /veh KRT8 (11758188_x_at) / RFU NKD1 (11759106_at) / Fold change /veh NKD1 (11759106_at) / RFU SRD5A1 (11742802_a_at) / Fold change /veh SRD5A1 (11742802_a_at) / RFU TPSAB1 /// TPSB2 (11721975_s_at) / Fold change /veh TPSAB1 /// TPSB2 (11721975_s_at) / RFU GSTM3 (11746129_a_at) / Fold change /veh GSTM3 (11746129_a_at) / RFU IL23R (11737362_x_at) / Fold change /veh IL23R (11737362_x_at) / RFU TMEM51 (11727254_a_at) / Fold change /veh TMEM51 (11727254_a_at) / RFU PIWIL2 (11732686_x_at) / Fold change /veh PIWIL2 (11732686_x_at) / RFU ORM1 (11744905_x_at) / Fold change /veh ORM1 (11744905_x_at) / RFU CCDC152 (11743942_at) / Fold change /veh CCDC152 (11743942_at) / RFU ECM1 (11717891_a_at) / Fold change /veh ECM1 (11717891_a_at) / RFU IL23R (11748794_a_at) / Fold change /veh IL23R (11748794_a_at) / RFU TNFAIP8L3 (11732012_x_at) / Fold change /veh TNFAIP8L3 (11732012_x_at) / RFU MBOAT4 (11741988_at) / Fold change /veh MBOAT4 (11741988_at) / RFU 11764193_at / Fold change /veh 11764193_at / RFU TMEM53 (11763286_at) / Fold change /veh TMEM53 (11763286_at) / RFU MAGEB2 (11727129_at) / Fold change /veh MAGEB2 (11727129_at) / RFU TMEM200A (11744735_a_at) / Fold change /veh TMEM200A (11744735_a_at) / RFU CCDC152 (11751479_a_at) / Fold change /veh CCDC152 (11751479_a_at) / RFU FAM211A (11726209_a_at) / Fold change /veh FAM211A (11726209_a_at) / RFU RGS16 (11746705_a_at) / Fold change /veh RGS16 (11746705_a_at) / RFU VCAN (11755009_s_at) / Fold change /veh VCAN (11755009_s_at) / RFU RHOB (11743442_s_at) / Fold change /veh RHOB (11743442_s_at) / RFU RGS16 (11720943_a_at) / Fold change /veh RGS16 (11720943_a_at) / RFU RGS16 (11720944_at) / Fold change /veh RGS16 (11720944_at) / RFU, VPS4B / Fold change vs veh, VPS4B / RFU, CREB1 / Fold change vs veh, CREB1 / RFU, DNAJC13 / Fold change vs veh, DNAJC13 / RFU, GNAQ / Fold change vs veh, GNAQ / RFU, CDK5R1 / Fold change vs veh, CDK5R1 / RFU, ZRANB3 / Fold change vs veh, ZRANB3 / RFU, CUL4A / Fold change vs veh, CUL4A / RFU, CCNY / Fold change vs veh, CCNY / RFU, UFL1 / Fold change vs veh, UFL1 / RFU, COG3 / Fold change vs veh, COG3 / RFU, DIAPH2 / Fold change vs veh, DIAPH2 / RFU, SKA2 / Fold change vs veh, SKA2 / RFU, AFF3 / Fold change vs veh, AFF3 / RFU, LMF1 / Fold change vs veh, LMF1 / RFU, IPO11 / Fold change vs veh, IPO11 / RFU, DFFB / Fold change vs veh, DFFB / RFU, FOXP1 / Fold change vs veh, FOXP1 / RFU, CARD8 / Fold change vs veh, CARD8 / RFU, STRN3 / Fold change vs veh, STRN3 / RFU, ADK / Fold change vs veh, ADK / RFU, RASSF2 / Fold change vs veh, RASSF2 / RFU, WIPF1 / Fold change vs veh, WIPF1 / RFU, LARP1B / Fold change vs veh, LARP1B / RFU, RASA1 / Fold change vs veh, RASA1 / RFU, RB1 / Fold change vs veh, RB1 / RFU, PPFIA1 / Fold change vs veh, PPFIA1 / RFU, MAT2A / Fold change vs veh, MAT2A / RFU, CCT5 / Fold change vs veh, CCT5 / RFU, WDR92 / Fold change vs veh, WDR92 / RFU, CUX1 / Fold change vs veh, CUX1 / RFU, TTC7A / Fold change vs veh, TTC7A / RFU, TMEM135 / Fold change vs veh, TMEM135 / RFU, DEPTOR / Fold change vs veh, DEPTOR / RFU, CPM / Fold change vs veh, CPM / RFU, DNAJB6 / Fold change vs veh, DNAJB6 / RFU, CACNA2D3 / Fold change vs veh, CACNA2D3 / RFU, DTX4 / Fold change vs veh, DTX4 / RFU, TFCP2 / Fold change vs veh, TFCP2 / RFU, GMCL1 /// GMCL1P1 / Fold change vs veh, GMCL1 /// GMCL1P1 / RFU, AEBP2 / Fold change vs veh, AEBP2 / RFU, SNHG1 /// SNORD22 /// SNORD25 /// SNORD26 /// SNORD27 /// SNORD28 /// SNORD29 /// SNORD31 / Fold change vs veh, SNHG1 /// SNORD22 /// SNORD25 /// SNORD26 /// SNORD27 /// SNORD28 /// SNORD29 /// SNORD31 / Fold change (Aza/veh), C12orf56 (ProbeSet 11735607_a_at) / Fold change (ACY-1035/veh), C12orf56 (ProbeSet 11735607_a_at) / Fold change (Aza/veh), FGFR1OP (ProbeSet 11751329_s_at) / Fold change (ACY-1035/veh), FGFR1OP (ProbeSet 11751329_s_at) / Fold change (Aza/veh), VPS36 (ProbeSet 11739960_a_at) / Fold change (ACY-1035/veh), VPS36 (ProbeSet 11739960_a_at) / RFU SYPL1 (11715823_x_at) / Fold change /veh SYPL1 (11715823_x_at) / RFU IGFBP7 (11715501_s_at) / Fold change /veh IGFBP7 (11715501_s_at) / RFU REEP3 (11722064_at) / Fold change /veh REEP3 (11722064_at) / RFU IGLL1 (11728026_x_at) / Fold change /veh IGLL1 (11728026_x_at): dose or concentration left out as unconfirmed
Conditions: MV-4-11 cells, 48 hours

Structure (SMILES): Nc1ncn([C@@H]2O[C@H](CO)[C@@H](O)[C@H]2O)c(=O)n1 [azacitidine]
- RFU TMEM200A (11744735_a_at): 6.62 RFU
